Calls of active or inactive are those of the source. The rule behind the calls is not given here.
Columns and labels:
[1] = biological target: T1, Friend leukemia integration 1 transcription factor (Homo sapiens) (UniProt Q01543); assay: Binding affinity to Fli-1 in HEL cells assessed as increase in thermal stability at 0.4 uM preincubated for 1 hr followed by heating at 40 to 60 degreeC by CETSA assay; type: cell-based
T1 sequence (whole entry): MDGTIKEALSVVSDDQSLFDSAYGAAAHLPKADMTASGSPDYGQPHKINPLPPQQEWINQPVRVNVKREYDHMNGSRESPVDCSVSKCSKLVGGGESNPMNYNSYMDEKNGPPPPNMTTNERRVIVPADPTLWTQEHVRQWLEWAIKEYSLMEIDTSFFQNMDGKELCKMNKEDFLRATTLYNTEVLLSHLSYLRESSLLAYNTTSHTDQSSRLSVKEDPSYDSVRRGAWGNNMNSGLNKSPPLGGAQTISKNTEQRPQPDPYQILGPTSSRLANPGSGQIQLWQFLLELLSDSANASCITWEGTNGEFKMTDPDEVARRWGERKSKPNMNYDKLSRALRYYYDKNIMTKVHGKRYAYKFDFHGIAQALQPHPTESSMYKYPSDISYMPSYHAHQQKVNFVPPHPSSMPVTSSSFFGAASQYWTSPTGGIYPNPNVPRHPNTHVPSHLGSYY

[2] = test system: HEL; assay: Induction of apoptosis in HEL cells assessed as upregulation of cleaved PARP expression at 0.1 to 0.4 uM incubated for 48 hrs by Western blot analysis; type: functional, cell-based; conditions: Homo sapiens, dose 0.1-0.4 µM
[3] = test system: HEL; assay: Induction of apoptosis in HEL cells assessed as upregulation of cleaved caspase-9 expression at 0.1 to 0.4 uM incubated for 48 hrs by Western blot analysis; type: functional, cell-based; conditions: Homo sapiens, dose 0.1-0.4 µM
[4] = test system: HEL; assay: Induction of apoptosis in HEL cells assessed as downregulation of caspase-9 expression at 0.1 to 0.4 uM incubated for 48 hrs by Western blot analysis; type: functional, cell-based; conditions: Homo sapiens, dose 0.1-0.4 µM
[5] = test system: HEL; assay: Induction of apoptosis in HEL cells assessed as downregulation of PARP expression at 0.1 to 0.4 uM incubated for 48 hrs by Western blot analysis; type: functional, cell-based; conditions: Homo sapiens, dose 0.1-0.4 µM
[6] = biological target: T1, Friend leukemia integration 1 transcription factor (Homo sapiens); assay: Inhibition of Fli-1 in HEL cells by Western blot analysis; type: cell-based; conditions: dose 0.1-0.4 µM
[7] = test system: HEL; assay: Induction of apoptosis in HEL cells assessed as downregulation of caspase-3 expression at 0.1 to 0.4 uM incubated for 48 hrs by Western blot analysis; type: functional, cell-based; conditions: Homo sapiens, dose 0.1-0.4 µM
[8] = test system: HEL; assay: Induction of apoptosis in HEL cells assessed as upregulation of cleaved caspase-3 expression at 0.1 to 0.4 uM incubated for 48 hrs by Western blot analysis; type: functional, cell-based; conditions: Homo sapiens, dose 0.1-0.4 µM

- Activity [1]: Active
- inhibition [6]: Dose-Dependent Effect
SMILES: COc1cc(OC)c2c(c1)O[C@@]1(c3ccc(OCCCCCN4CCN(C)CC4)cc3)[C@H](c3ccccc3)C[C@@H](O)[C@@]21O (racemic; form 2)
- Activity [2]: Active
- Activity [3]: Active
- Activity [4]: Active
- Activity [5]: Active
- Activity [7]: Active
- Activity [8]: Active

— ChEMBL document CHEMBL5357031, “Design and Synthesis of Cytotoxic Water-Soluble Rocaglaol Derivatives against HEL Cells by Inhibiting Fli-1” (J Nat Prod, 2024)
